Results as given in US12059425B2, “Heterocyclic compounds and uses thereof” (Kumquat Biosciences Inc., priority 2022, dated 2024).

Columns and labels:
K-Ras G12D = target: T1, K-Ras G12D (Homo sapiens, UniProt P01116, G12D); assay: PPI-HTRF assay, K-Ras G12D / SOS1 interaction; assay type: biochemical; conditions: HTRF, K-Ras G12D; read-out: PPI-HTRF-5 nM (K-Ras G12D IC50)
T1 construct: made in house; host or cells: E. coli, e.g. BL21 (DE3)
Procedure, shortened: (§1)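 Equilibrium interaction of GST-tagged human K-Ras (wildtype or G12D/G12V/G12S mutant) with His-tagged hSOS1. Detection uses anti-GST-Eu(K) and anti-6His-XL665 in HEPES pH 7.4 buffer. Signal is read ≥10 min after mixing and the ratiometric HTRF signal is fitted for IC50.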

K-Ras G12S = target: T2, K-Ras G12S (Homo sapiens, UniProt P01116, G12S); assay: PPI-HTRF assay, K-Ras G12S / SOS1 interaction; assay type: biochemical; conditions: read-out: PPI-HTRF-5 nM (K-Ras G12S IC50)
T2 construct: made in house; host or cells: E. coli, e.g. BL21 (DE3)
Procedure, shortened: as §1

K-Ras G12V = target: T3, K-Ras G12V (Homo sapiens, UniProt P01116, G12V); assay: PPI-HTRF assay, K-Ras G12V / SOS1 interaction; assay type: biochemical; conditions: HTRF, K-Ras G12V; read-out: PPI-HTRF-5 nM (K-Ras G12V IC50)
T3 construct: made in house; host or cells: E. coli, e.g. BL21 (DE3)
Procedure, shortened: as §1

wildtype K-Ras = target: T4, wildtype K-Ras (Homo sapiens, UniProt P01116); assay: PPI-HTRF assay, wildtype K-Ras / SOS1 interaction; assay type: biochemical; conditions: HTRF, K-Ras wt; read-out: PPI-HTRF-5 nM (K-Ras wt IC50)
T4 construct: made in house; host or cells: E. coli, e.g. BL21 (DE3)
Procedure, shortened: as §1

GP2D cells = assay: Ras cellular assay, cell proliferation GP2D; assay type: cell-based
Procedure, shortened: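 Growth inhibition read by CellTiter-Glo luminescence roughly 5 days after compound addition, which followed overnight plating of G12D-mutant GP2D cells (e.g., 800 per well). Compounds were tested as a serial dilution (e.g., 9 points, 3-fold), with IC50 fitted by four-parameter model.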

A549 cells = assay: Ras cellular assay, cell proliferation A549; assay type: cell-based; conditions: Homo sapiens
Procedure, shortened: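 G12S-mutant A549 cells (800/well) in RPMI-1640 plus 10% heat-inactivated FBS, standard or ultra-low attachment 384-well plates, dosed the day after plating with a 10-point 3-fold series. Viability by CellTiter-Glo luminescence about 6 days later; IC50 from four-parameter fit.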

SW620 cells = assay: Ras cellular assay, cell proliferation SW620; assay type: cell-based; conditions: Homo sapiens, SW-620
Text: For example, this assay can be also used to assess selective growth inhibition of a mutant Ras protein relative to a wildtype, or relative to a different mutant Ras protein.

T1 sequence (P01116 1-188 isoform P01116-2 G12D): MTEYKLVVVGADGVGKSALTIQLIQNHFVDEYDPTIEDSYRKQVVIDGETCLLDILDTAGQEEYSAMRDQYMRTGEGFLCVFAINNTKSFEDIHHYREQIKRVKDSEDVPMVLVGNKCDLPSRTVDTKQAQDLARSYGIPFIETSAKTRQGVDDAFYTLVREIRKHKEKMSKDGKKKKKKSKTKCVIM
T2 sequence (P01116 1-188 isoform P01116-2 G12S): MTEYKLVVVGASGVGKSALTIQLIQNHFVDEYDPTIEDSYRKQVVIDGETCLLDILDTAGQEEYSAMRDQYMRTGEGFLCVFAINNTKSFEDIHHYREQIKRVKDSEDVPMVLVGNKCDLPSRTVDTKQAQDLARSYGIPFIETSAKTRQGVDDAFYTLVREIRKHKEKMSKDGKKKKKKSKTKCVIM
T3 sequence (P01116 1-188 isoform P01116-2 G12V): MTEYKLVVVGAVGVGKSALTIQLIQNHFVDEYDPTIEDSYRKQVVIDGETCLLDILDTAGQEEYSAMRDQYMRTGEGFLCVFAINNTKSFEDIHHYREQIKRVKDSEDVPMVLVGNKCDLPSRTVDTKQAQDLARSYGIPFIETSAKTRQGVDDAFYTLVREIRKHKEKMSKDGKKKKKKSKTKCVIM
T4 sequence (P01116 1-188 isoform P01116-2): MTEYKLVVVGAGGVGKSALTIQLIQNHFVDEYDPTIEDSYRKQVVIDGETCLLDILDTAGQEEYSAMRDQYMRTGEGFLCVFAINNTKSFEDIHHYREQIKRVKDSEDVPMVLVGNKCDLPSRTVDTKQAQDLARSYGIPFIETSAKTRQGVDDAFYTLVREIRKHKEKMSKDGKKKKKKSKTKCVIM

| IC50 (K-Ras G12D) | IC50 (K-Ras G12S) | IC50 (K-Ras G12V) | IC50 (wildtype K-Ras) | IC50 (A549 cells) | IC50 (SW620 cells) | Compound | IC50 (GP2D cells) |
| --- | --- | --- | --- | --- | --- | --- | --- |
| < 5 µM | < 5 µM | < 5 µM | < 5 µM | < 5 µM | < 5 µM | N#Cc1c(N)sc2c(F)ccc(-c3c(Cl)c4c5c(nc(OC[C@@]67CCCN6C[C@H](F)C7)nc5c3F)N3CCN(C=O)CCC3CO4)c12 (stereo partly drawn) [compound 152, 2-amino-4-(12-chloro-10-fluoro-8-(((2R,7aS)-2-fluorotetrahydro-1H-pyrrolizin-7a(5H)-yl)methoxy)-3-formyl-2,3,4,5,14,14a-hexahydro-1H-[1,4]diazepino[7′,1′:3,4][1,4]oxazepino[5,6,7-de]quinazolin-11-yl)-7-fluorobenzo[b]thiophene-3-carbonitrile] | < 5 µM |
| < 5 µM | < 5 µM | < 5 µM | < 5 µM | < 5 µM | < 5 µM | N#Cc1c(N)sc2c(F)ccc(-c3c(Cl)c4c5c(nc(OC[C@@]67CCCN6C[C@H](F)C7)nc5c3F)N3C(CCCC3C(F)F)CO4)c12 (stereo partly drawn) [compound 189, 2-amino-4-(6-chloro-12-(difluoromethyl)-4-fluoro-2-(((2R,7aS)-2-fluorotetrahydro-1H-pyrrolizin-7a(5H)-yl)methoxy)-8,8a,9,10,11,12-hexahydropyrido[2′,1′:3,4][1,4]oxazepino [5,6,7-de]quinazolin-5-yl)-7-fluorobenzo[b]thiophene-3-carbonitrile] | < 5 µM |
| < 5 µM | < 5 µM | < 5 µM | < 5 µM | < 5 µM | < 5 µM | N#Cc1c(N)sc2c(F)ccc(-c3c(Cl)c4c5c(nc(OCC67CCCN6C[C@H](F)C7)nc5c3F)N3CC(CO)CCC3CO4)c12 (stereo partly drawn) [compound 215, 2-amino-4-(6-chloro-4-fluoro-2-(((2R)-2-fluorotetrahydro-1H-pyrrolizin-7a(5H)-yl)methoxy)-11-(hydroxymethyl)-8,8a,9,10,11,12-hexahydropyrido[2′,1′:3,4][1,4]oxazepino [5,6,7-de]quinazolin-5-yl)-7-fluorobenzo[b]thiophene-3-carbonitrile] | < 5 µM |
| < 5 µM | < 5 µM | < 5 µM | < 5 µM | < 5 µM | < 5 µM | N#Cc1c(N)sc2c(F)ccc(-c3c(Cl)c4c5c(nc(OC[C@@]67CCCN6C[C@H](F)C7)nc5c3F)N3CCOCC3CO4)c12 (stereo partly drawn) [compound 116, 2-amino-4-(6-chloro-4-fluoro-2-(((2R,7aS)-2-fluorotetrahydro-1H-pyrrolizin-7a(5H)-yl)methoxy)-8a,9,11,12-tetrahydro-8H-[1,4]oxazino[3′,4′:3,4][1,4]oxazepino[5,6,7-de]quinazolin-5-yl)-7-fluorobenzo[b]thiophene-3-carbonitrile] | < 5 µM |
| < 5 µM | < 5 µM | < 5 µM | < 5 µM | < 5 µM | < 5 µM | N#Cc1c(N)sc2c(F)ccc(-c3c(Cl)c4c5c(nc(OC[C@@]67CCCN6C[C@H](F)C7)nc5c3F)N3CCN(C(=O)C(F)F)CCC3CO4)c12 (stereo partly drawn) [compound 149, 2-amino-4-(6-chloro-11-(2,2-difluoroacetyl)-4-fluoro-2-(((2R,7aS)-2-fluorotetrahydro-1H-pyrrolizin-7a(5H)-yl)methoxy)-8a,9,10,11,12,13-hexahydro-8H-[1,4]diazepino[7′,1′:3,4][1,4]oxazepino [5,6,7-de]quinazolin-5-yl)-7-fluorobenzo[b]thiophene-3-carbonitrile] | < 5 µM |
| < 5 µM | < 5 µM | < 5 µM | < 5 µM | < 5 µM | < 5 µM | N#Cc1c(N)sc2c(F)ccc(-c3c(Cl)c4c5c(nc(OCC67CCCN6C[C@H](F)C7)nc5c3F)N3CCCC[C@H]3CO4)c12 (stereo partly drawn) [compound 168, 2-amino-4-((5aS)-3-chloro-1-fluoro-12-(((2R,7aS)-2-fluorohexahydro-1H-pyrrolizin-7a-yl)methoxy)-5,5a,6,7,8,9-hexahydropyrido[2′,1′:3,4][1,4]oxazepino[5,6,7-de]quinazolin-2-yl)-7-fluorobenzo[b]thiophene-3-carbonitrile] | < 5 µM |
| < 5 µM | < 5 µM | < 5 µM | < 5 µM | < 5 µM | < 5 µM | N#Cc1c(N)sc2c(F)ccc(-c3c(Cl)c4c5c(nc(OC[C@@]67CCCN6C[C@H](F)C7)nc5c3F)N(CC(F)F)C3CNCC3O4)c12 (stereo partly drawn) [compound 175, 2-amino-4-(6-chloro-11-(2,2-difluoroethyl)-4-fluoro-2-(((2R,7aS)-2-fluorotetrahydro-1H-pyrrolizin-7a(5H)-yl)methoxy)-7a,8,9,10,10a,11-hexahydropyrrolo[3′,4′:2,3][1,4]oxazepino [5,6,7-de]quinazolin-5-yl)-7-fluorobenzo[b]thiophene-3-carbonitrile] | < 5 µM |
| < 5 µM | < 5 µM | < 5 µM | < 5 µM | < 5 µM | < 5 µM | N#CCC1CCC2COc3c(Cl)c(-c4ccc(F)c5sc(N)c(C#N)c45)c(F)c4nc(OCC56CCCN5C[C@H](F)C6)nc(c34)N2C1 (stereo partly drawn) [compound 204, 2-amino-4-(6-chloro-11-(cyanomethyl)-4-fluoro-2-(((2R)-2-fluorotetrahydro-1H-pyrrolizin-7a(5H)-yl)methoxy)-8,8a,9,10,11,12-hexahydropyrido[2′,1′:3,4][1,4]oxazepino [5,6,7-de]quinazolin-5-yl)-7-fluorobenzo[b]thiophene-3-carbonitrile] | < 5 µM |
| < 5 µM | < 5 µM | < 5 µM | < 5 µM | < 5 µM | < 5 µM | N#Cc1c(N)sc2c(F)ccc(-c3c(Cl)c4c5c(nc(OC[C@@]67CCCN6C[C@H](F)C7)nc5c3F)N3Cc5ccnn5CCC3CO4)c12 (stereo partly drawn) [compound 134, 2-amino-4-(3-chloro-1-fluoro-15-(((2R,7aS)-2-fluorotetrahydro-1H-pyrrolizin-7a(5H)-yl)methoxy)-5,5a,6,7-tetrahydro-12H-pyrazolo[5″,1″:3′,4′][1,4]diazepino[7′,1′:3,4][1,4]oxazepino[5,6,7-de]quinazolin-2-yl)-7-fluorobenzo[b]thiophene-3-carbonitrile] | < 5 µM |
| < 5 µM | < 5 µM | < 5 µM | < 5 µM | < 5 µM | < 5 µM | N#Cc1c(N)sc2c(F)ccc(-c3c(Cl)c4c5c(nc(OC[C@@]67CCCN6C[C@H](F)C7)nc5c3F)N3CC[C@H]3CCO4)c12 [compound 207, 2-amino-4-((12aS)-9-chloro-7-fluoro-5-(((2R,7aS)-2-fluorotetrahydro-1H-pyrrolizin-7a(5H)-yl)methoxy)-1,11,12,12a-tetrahydro-2H-azeto[11,2′:5,6][1,5]oxazocino[4,3,2-de]quinazolin-8-yl)-7-fluorobenzo[b]thiophene-3-carbonitrile] | < 5 µM |

| Compound | IC50 (K-Ras G12D) | IC50 (K-Ras G12S) | IC50 (K-Ras G12V) | IC50 (wildtype K-Ras) | IC50 (A549 cells) | IC50 (SW620 cells) | IC50 (GP2D cells) |
| --- | --- | --- | --- | --- | --- | --- | --- |
| CN1c2nc(OC[C@@]34CCCN3C[C@H](F)C4)nc3c(F)c(-c4ccc(F)c5sc(N)c(C#N)c45)c(Cl)c(c23)OCC2CN(C(=O)[C@H]3CN3)CC21 (stereo partly drawn) [compound 124, 2-amino-4-(10-((R)-aziridine-2-carbonyl)-6-chloro-4-fluoro-2-(((2R,7aS)-2-fluorotetrahydro-1H-pyrrolizin-7a(5H)-yl)methoxy)-12-methyl-8a,9,10,11,11a,12-hexahydro-8H-pyrrolo[3′,4′:6,7][1,5]oxazocino[4,3,2-de]quinazolin-5-yl)-7-fluorobenzo[b]thiophene-3-carbonitrile] | < 5 µM | < 5 µM | < 5 µM | < 5 µM | > 5 µM | < 5 µM | < 5 µM |
| N#Cc1c(N)sc2c(F)ccc(-c3c(Cl)c4c5c(nc(OC[C@@]67CCCN6C[C@H](F)C7)nc5c3F)N3[C@H](CCO4)C[C@@H]4OCC[C@@H]43)c12 [compound 200, 2-amino-4-((6aR,7aS,10aS)-3-chloro-1-fluoro-13-(((2R,7aS)-2-fluorotetrahydro-1H-pyrrolizin-7a(5H)-yl)methoxy)-5,6,6a,7,7a,9,10,10a-octahydrofuro[2″,3″:4′,5′]pyrrolo[1′,2′:5,6][1,5]oxazocino[4,3,2-de]quinazolin-2-yl)-7-fluorobenzo[b]thiophene-3-carbonitrile] | < 5 µM | < 5 µM | < 5 µM | < 5 µM | < 5 µM | < 5 µM | < 5 µM |
